Like-named read-outs stand apart in the source and are kept apart here.
Tests used:
[1] = system: BEAS-2B; experiment: Cell viability, MTT assay at 48 h; format: cell-based; details: Homo sapiens, read-out: EC50 ± SEM, normal cells BEAS-2B
Procedure: (§1) Human MCF7 breast adenocarcinoma (#HTB-22) and human A549 carcinoma (#CCL-85) cell lines, non-tumor human breast (MCF10A, #CRL-10317) and lung (BEAS-2B, #CRL-9482) cells were obtained from American Type Culture Collection (ATCC, Bethesda, MD). MCF7 cells were cultured in DMEM medium (Gibco Thermo Scientific, Waltham, MA; #10,565,018), A549 in HAM’s F12 medium (Gibco Thermo Scientific; #11,765,054), and BEAS-2B in RPMI-1640 medium (Gibco Thermo Scientific; # 61,870,010), all supplemented with 10% v/v fetal bovine serum (FBS; Sigma, St. Louis, MO; #F4135) and 1% v/v penicillin–streptomycin (Sigma; #P4458). MCF10A cells were cultured in DMEM/F12 medium (Gibco Thermo Scientific; #31,331,028) supplemented with 5% v/v horse serum (Sigma; #H1270) and 1% v/v penicillin–streptomycin, 20 ng/mL epidermal growth factor (Sigma, #E4127), 10 µg/mL insulin (Sigma, #I3536), […] hydrocortisone (Sigma, #H0888), 100 ng/mL cholera toxin (Sigma, #C8052). Cells were kept in a humidified incubator at 37 °C with 5% CO2.
(§2) Cell growth was determined using the MTT assay at 48 h. On day 1, 25,000 cells/well were seeded into 96-well plates in a volume of 100 μL. On day 2, the various drug concentrations (1 μM–100 μM) were added. In all experiments, the various drug solvents (EtOH, Sigma, # E7148; DMSO, Sigma, # D8418) were added to each control to evaluate possible cytotoxicity of the solvent. After the established incubation time with drugs (48 h), MTT (0.5 mg/mL, Sigma # M2003) was added to each well, and after 3–4 h incubation at 37 °C, the supernatant was removed. Formazan crystals were solubilized using 100 μl of DMSO/EtOH (1:1) and absorbance values at 570 and 630 nm were determined on the microplate reader Victor 3 from PerkinElmer Life Sciences (Waltham, MA).

[2] = system: MCF10A; experiment: Cell viability, MTT assay at 48 h; format: cell-based; details: Homo sapiens, MCF-10A, read-out: EC50 ± SEM, normal cells MCF10A
Procedure: as §1, §2

[3] = system: caspase 9 in MCF7 cells; experiment: Caspase 9 activity, fluorimetric; format: cell-based, human; details: MCF7, 2 h, 50 µM
Procedure: Activation of caspase 3, caspase 7 and caspase 9 was measured using the Caspase 3/7 Fluorescence Assay kit (Cayman Chemical, Ann Arbor, MI; #10,009,135) and the Caspase 9 fluorimetric assay kit (Enzo Life Science, Roma, Italy; #ALX-850-224). The results were expressed as nmoles of the hydrolyzed substrate of each caspase/mg cellular proteins, according to a previously set titration curve.

[4] = system: GRP78, ATF6, IRE1, PERK in MCF7 cells; experiment: ER stress markers, qRT-PCR and immunoblotting; format: cell-based, human; details: MCF7, 2 h, 50 µM
Procedure: 1 μg total RNA was reverse-transcribed using the iScript Reverse Transcription Supermix kit (Bio-Rad Laboratories, Hercules, CA; #1,708,840), according to the manufacturer’s instruction. 25 ng cDNA were amplified with 10 μL IQ™ SYBR Green Supermix (Bio-Rad Laboratories, # 1708880B05). Primers were designed with the qPrimer Depot software (http://primerdepot.nci.nih.gov/). qRT-PCR was carried out with a CFX96™ Real-Time Detector System (Bio-Rad Laboratories). Cycling conditions were: 30 s at 95 °C, followed by 40 cycles of denaturation (15 s at 95 °C), annealing/extension (30 s at 60 °C). The same cDNA preparation was used to quantify the genes of interest and the housekeeping gene S14, used to normalize gene expression. The relative quantitation of each sample was carried out using the Gene Expression Quantitation software (Bio-Rad Laboratories). Results were expressed in arbitrary units. For each gene, the expression in untreated cells was assumed to be “1”.
Cells were rinsed with ice-cold lysis buffer (50 mM, Tris, 10 mM EDTA, 1% v/v Triton-X100), supplemented with the protease inhibitor cocktail set III (80 μM aprotinin, 5 mM bestatin, 1.5 mM leupeptin, 1 mM pepstatin; Sigma, # 535,140), 2 mM phenylmethylsulfonyl fluoride (Sigma: #P7626) and 1 mM Na3VO4, (Sigma; #S6508) then sonicated and centrifuged at 13,000 × g for 10 min at 4 °C. 20 μg protein extracts were subjected to SDS–PAGE and probed with the antibodies for: GRP78 (#ab21685), ATF6 (#ab122897), IRE-1 (#ab37073), PERK (#ab65142), actin (#ab1801) (all from Abcam, Cambridge, UK), followed by a peroxidase-conjugated secondary antibody (Bio-Rad Laboratories). The membranes were washed with Tris-buffered saline-Tween 0.1% v/v solution, and the proteins were detected by enhanced chemiluminescence (Bio-Rad Laboratories, #1,705,061). The densitometric analysis was performed using the ImageJ software (https://imagej.nih.gov/), calculating the ratio protein of interest/actin band density, putting actin band density as 1 relative unit in each condition. Densitometric analysis and whole blots are included as Supporting Information.

[5] = system: A549 cells; experiment: Mitochondrial ROS, MitoSOX staining; format: cell-based, human; details: A549, 2 h, 50 µM
Procedure: (§3) Intramitochondrial reactive oxygen species (ROS) were measured using the MitoSOX fluorescent probe (Invitrogen ThermoScientific, # M36008), according to the manufacturer’s instructions. For total ROS, cells were incubated with 5 µmol/L of 5-(and-6)-chlorometyl-20,70-dichlorodihydro-fluorescein diacetate-acetoxymethyl ester (DCFDA-AM, Sigma, #21,884), as described by Riganti et al. 2015 [21]. The results are expressed as nmoles/mg mitochondrial or cellular proteins, respectively.

[6] = system: MCF7 cells; experiment: Mitochondrial ROS, MitoSOX staining; format: cell-based, human; details: MCF7, 2 h, 50 µM
Procedure: as §3

[7] = system: MCF7 and A549 cells; experiment: Whole cell ROS, DCFDA-AM probe; format: cell-based, human; details: MCF7 and A549, 2 h, 50 µM
Procedure: as §3

[8] = system: A549 cells; experiment: Mitochondrial depolarization, JC-1 staining; format: cell-based, human; details: A549, 2 h, 50 µM
Procedure: (§4) Staining with the JC-1 fluorescent probe (Biotium Inc., Freemont, CA; #30,001-30001-T) was performed as described in Riganti et al. 2015 [21]. Fluorescence units were used to calculate the percentage of green-fluorescent (i.e., depolarized) mitochondria vs red-fluorescent (i.e., polarized) mitochondria.

[9] = system: MCF7 cells; experiment: Mitochondrial depolarization, JC-1 staining; format: cell-based, human; details: MCF7, 2 h, 50 µM
Procedure: as §4

[10] = system: MCF7; design: method as in doi:10.1039/C5RA19857G; details: MTT; read-out: EC50, tumor cells MCF7; cited from earlier work
[11] = system: A549; design: method as in doi:10.1039/C5RA19857G; details: MTT; read-out: EC50, tumor cells A549; cited from earlier work
[12] = target: sigma-2 receptors (Homo sapiens, UniProt Q5BJF2); details: read-out: Sigma-2 Affinity Ki; cited from earlier work
[13] = target: T1, P-gp (Homo sapiens, UniProt P08183); details: cited from earlier work
T1 construct: expressed in transfected cells; host or cells: MDCK-MDR1

[14] = system: A549; experiment: Cell viability, MTT assay at 48 h; format: cell-based; details: Homo sapiens, A549, 48 h, read-out: EC50 ± SEM, tumor cells A549
Procedure: as §1, §2

[15] = system: MCF7; experiment: Cell viability, MTT assay at 48 h; format: cell-based; details: Homo sapiens, MCF7, 48 h, read-out: EC50 ± SEM, tumor cells MCF7
Procedure: as §1, §2

T1 sequence (P08183 whole entry): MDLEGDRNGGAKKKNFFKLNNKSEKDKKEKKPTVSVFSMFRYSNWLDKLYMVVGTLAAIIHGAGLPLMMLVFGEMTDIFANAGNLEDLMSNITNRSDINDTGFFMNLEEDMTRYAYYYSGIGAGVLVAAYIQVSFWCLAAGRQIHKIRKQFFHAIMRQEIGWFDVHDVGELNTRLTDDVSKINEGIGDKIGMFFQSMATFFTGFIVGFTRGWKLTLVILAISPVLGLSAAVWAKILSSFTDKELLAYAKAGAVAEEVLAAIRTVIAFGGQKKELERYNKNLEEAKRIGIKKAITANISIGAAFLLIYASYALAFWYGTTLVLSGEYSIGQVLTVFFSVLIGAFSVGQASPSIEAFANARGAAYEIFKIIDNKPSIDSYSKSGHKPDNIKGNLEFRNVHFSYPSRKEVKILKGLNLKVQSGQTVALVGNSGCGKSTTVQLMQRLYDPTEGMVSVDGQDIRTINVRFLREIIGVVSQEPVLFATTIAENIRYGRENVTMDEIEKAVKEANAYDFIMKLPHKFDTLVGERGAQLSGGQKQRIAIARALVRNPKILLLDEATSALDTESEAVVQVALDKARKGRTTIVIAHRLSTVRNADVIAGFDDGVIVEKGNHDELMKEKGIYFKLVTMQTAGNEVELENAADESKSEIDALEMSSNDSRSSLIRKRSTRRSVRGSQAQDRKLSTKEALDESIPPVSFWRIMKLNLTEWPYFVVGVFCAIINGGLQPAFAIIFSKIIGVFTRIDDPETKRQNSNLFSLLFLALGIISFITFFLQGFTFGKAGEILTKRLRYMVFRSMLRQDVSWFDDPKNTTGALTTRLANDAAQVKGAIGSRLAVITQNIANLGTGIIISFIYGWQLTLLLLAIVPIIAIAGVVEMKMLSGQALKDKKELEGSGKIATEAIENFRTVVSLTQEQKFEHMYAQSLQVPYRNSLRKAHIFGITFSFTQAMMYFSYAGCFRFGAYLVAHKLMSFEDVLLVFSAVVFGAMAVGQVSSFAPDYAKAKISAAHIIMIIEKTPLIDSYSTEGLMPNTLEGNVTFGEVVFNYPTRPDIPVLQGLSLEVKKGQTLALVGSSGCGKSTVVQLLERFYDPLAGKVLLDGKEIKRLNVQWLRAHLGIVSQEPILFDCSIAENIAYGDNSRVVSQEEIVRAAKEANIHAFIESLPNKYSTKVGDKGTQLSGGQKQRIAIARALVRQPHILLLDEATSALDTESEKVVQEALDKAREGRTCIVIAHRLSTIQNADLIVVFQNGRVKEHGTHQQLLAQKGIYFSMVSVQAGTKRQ
Sequence of sigma-2 receptors (Q5BJF2 whole entry): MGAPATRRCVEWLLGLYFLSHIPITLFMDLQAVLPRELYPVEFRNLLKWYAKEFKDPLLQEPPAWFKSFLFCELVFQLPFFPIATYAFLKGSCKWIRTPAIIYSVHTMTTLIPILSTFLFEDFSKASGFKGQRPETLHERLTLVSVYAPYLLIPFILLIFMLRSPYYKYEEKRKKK

| SMILES | EC50 [1] | EC50 [2] | Rank order of caspase 9 activation [3] | Expression of ER stress markers GRP78, ATF6, IRE1, PERK [4] | Mitochondrial ROS (MitoSOX) [5] | Mitochondrial ROS (MitoSOX) [6] | ROS levels in whole cells (DCFDA-AM) [7] | Mitochondrial depolarization (JC-1 staining) [8] | Mitochondrial depolarization (JC-1 staining) [9] | EC50 [10] | EC50 [11] | Ki [12] | EC50 [13] | EC50 [14] | EC50 [15] | P-gp Activity EC50 [13] |
| --- | --- | --- | --- | --- | --- | --- | --- | --- | --- | --- | --- | --- | --- | --- | --- | --- |
| COc1cc2c(cc1OC)CN(CCCCN1C(=O)/C(=N\NC(=S)N(C)C)c3ccccc31)CC2 [MLP44, (Z)-2-(1-(4-(6,7-Dimethoxy-3,4-dihydroisoquinolin-2(1H)-yl)butyl)-2-oxoindolin-3-ylidene)-N,N-dimethylhydrazinecarbothioamide] | 11.9 ± 2.1 µM | 24.2 ± 0.8 µM | FA4 > MLP44 > PS3 > ACThio1 | modest effects | increased | increased | variable | totally insensitive | strong depolarization | 24.6 µM | 10.4 µM | 0.0341 µM | 3.04 µM |  |  |  |
| CN(C)C(=S)N/N=C1\C(=O)N(CCCCN2CCN(C3CCCCC3)CC2)c2ccccc21 [PS3, (Z)-2-[1-[4-(4-cyclohexylpiperazin-1-yl)butyl]-2-oxoindolin-3-ylidene]-N,N-dimethylhydrazinecarbothioamide] | 6.22 ± 1.3 µM | 3.03 ± 0.6 µM | FA4 > MLP44 > PS3 > ACThio1 | modest effects |  |  | not significantly increased | did not produce any detectable changes in mitochondrial polarization | did not produce any detectable changes in mitochondrial polarization | 1.81 µM | 2.2 µM | 0.0354 µM | 2.83 µM |  |  |  |
| CN(C)C(=S)N/N=C1\C(=O)Nc2ccccc21 [ACThio1, (Z)-N,N-dimethyl-2-(2-oxoindolin-3-ylidene)hydrazinecarbothioamide] | 3.39 ± 0.8 µM | 2.09 ± 0.4 µM | FA4 > MLP44 > PS3 > ACThio1 | no or negligible effect |  |  | not significantly increased | did not produce any detectable changes in mitochondrial polarization | did not produce any detectable changes in mitochondrial polarization |  |  | > 10 µM |  | 4.08 ± 0.4 µM | 5.88 ± 1.1 µM | Not Active^d |
